Structures can show the parent of a compound that is named as a salt.

For test [1], the target named is AMPA receptor. Kind of test: AMPA receptor binding (Honore et al.).
Test [2] has as its target T1, glycine site of the NMDA receptor (Rattus norvegicus, UniProt P35439).
T1 construct: from tissue
Kind of test: Binding to the glycine site of the NMDA receptor (Jones et al.).

Test [3] addresses kainate site (non-NMDA receptor). Kind of test: Kainate site (non-NMDA receptor) binding (London and Coyle).

Take `O=C(C1CCCCC1)N1CCc2c([N+](=O)[O-])cc3[nH]c(=O)c(=O)[nH]c3c2C1` [Example 36, 9-(Cyclohexylcarbonyl)-1,4,7,8,9,10-hexahydro-6-nitropyrido[3,4-f]quinoxaline-2,3-dione]: the IC50 in test [1] was determined as 0.34 µM; in test [3] it was 5.87 µM. This molecule had an inhibition at 10 µM in test [2] of 88%.
On the same counts, the results for `O=C(Cc1ccc(Cl)cc1)N1CCc2c([N+](=O)[O-])cc3[nH]c(=O)c(=O)[nH]c3c2C1` [Example 39] are 0.84 µM, 8.2 µM and 98%.
On the same counts, the results for `O=C(Cc1ccccc1)N1CCc2c([N+](=O)[O-])cc3[nH]c(=O)c(=O)[nH]c3c2C1` [Example 38, 1,4,7,8,9,10-Hexahydro-6-nitro-9-(phenylacetyl)pyrido(3,4-f]quinoxaline-2,3-dione] are 0.24 µM, 1.62 µM and 99%.
In the same order, the values of `O=c1[nH]c2cc(Br)c3c(c2[nH]c1=O)CN(CCc1ccccc1)CC3` [Example 11, 6-Bromo-1,4,7,8,9,10-hexahydro-9-(2-phenylethyl)pyrido[3,4-f]quinoxaline-2,3-dione] are greater than 100 µM, 9 µM and less than 50%.
On to `O=c1[nH]c2ccc3c(c2[nH]c1=O)CNCC3` [Example 30, 1,4,7,8,9,10-Hexahydropyrido[3,4-f]quinoxaline-2,3-dione], for which the IC50 in test [1] worked out at 84 µM; in test [3], 56 µM.
In the case of `O=c1[nH]c2ccc3c(c2[nH]c1=O)CN(Cc1ccc(C(F)(F)F)cc1)CC3` [Example 17, 1,4,7,8,9,10-Hexahydro-9-[[4-(trifluoromethyl)phenyl]methyl]pyrido[3,4-f]quinoxaline-2,3-dione], the IC50 in test [1] and in test [3] was greater than 100 µM each time.
As to `O=c1[nH]c2cc([N+](=O)[O-])c3c(c2[nH]c1=O)CNCC3` [Example 31, 1,4,7,8,9,10-Hexahydro-6-nitropyrido[3,4-f]quinoxaline-2,3-dione], the IC50 in test [1] was determined as 51 µM; in test [3], 0.48 µM. In test [2], this molecule came in with an inhibition at 10 µM of 70%.
On the same counts, the results for `O=c1[nH]c2cc(Br)c3c(c2[nH]c1=O)CN(CCCc1ccccc1)CC3` [Example 14, 6-Bromo-1,4,7,8,9,10-hexahydro-9-(3-phenylpropyl)pyrido[3,4-f]quinoxaline-2,3-dione] are greater than 100 µM, 40 µM and less than 50%.
On the same counts, the results for `O=C(c1ccccc1)N1CCc2c([N+](=O)[O-])cc3[nH]c(=O)c(=O)[nH]c3c2C1` [Example 35, 9-Benzoyl-1,4,7,8,9,10-hexahydro-6-nitropyrido[3,4-f]quinoxaline-2,3-dione] are 0.37 µM, 1.38 µM and 80%.
Take `CC(C)(C)OC(=O)N1CCC(C(=O)N2CCc3c([N+](=O)[O-])cc4[nH]c(=O)c(=O)[nH]c4c3C2)CC1` [Example 34, 1,1-dimethylethyl 4-[(1,2,3,4,7,8,9,10-octahydro-6-nitro-2,3-dioxopyrido[3,4-f]quinoxaline-9-yl)carbonyl]-1-piperidine carboxylate]: the IC50 in test [1] was 0.58 µM; in test [3] it was 6.9 µM. Also, the inhibition at 10 µM in test [2] is 81%.
With `CC(C)(C)OC(=O)N1CCC(C(=O)N2CCc3ccc4[nH]c(=O)c(=O)[nH]c4c3C2)CC1` [Example 32, 1,1-dimethylethyl 4-[(1,2,3,4,7,8,9,10-octahydro-2,3-dioxopyrido[3,4-f]quinoxaline-9-yl)carbonyl]-1-piperidine carboxylate], the figures for the half-inhibitory concentration (IC50) in test [1] and in test [3] were greater than 100 µM and 65 µM, respectively.
For `O=c1[nH]c2cc(Br)c3c(c2[nH]c1=O)CCN(CCCc1ccccc1)C3` [Example 54, 6-Bromo-1,4,7,8,9,10-hexahydro-8-(3-Phenylproyl)pyrido[3,4-f]quinoxaline-2,3-dione hydrochloride], the IC50 is 43 µM in test [1] and greater than 100 µM in test [3].
As for `O=c1[nH]c2cc([N+](=O)[O-])c3c(c2[nH]c1=O)CN(Cc1ccc(C(F)(F)F)cc1)CC3` [Example 18], the IC50 worked out at 3.1 µM in test [1] and 34 µM in test [3].
As for `O=c1[nH]c2ccc3c(c2[nH]c1=O)CCN(Cc1ccc(C(F)(F)F)cc1)C3` [Example 26], the IC50 in test [1] and in test [3] was greater than 100 µM each time.
As for `O=c1[nH]c2cc(Br)c3c(c2[nH]c1=O)CN(Cc1ccccc1)CC3` [Example 8, 6-Bromo-1,4,7,8,9,10-hexahydro-9-(phenylmethyl)pryrido[3,4-f]quinoxaline-2,3-dione], the values for the concentration for half-maximal inhibition (IC50) in test [1] and in test [3] were 20 µM and 16 µM, respectively. Moreover, the inhibition at 10 µM in test [2] was less than 50%.
Take `O=C(c1ccc(Cl)cc1)N1CCc2c([N+](=O)[O-])cc3[nH]c(=O)c(=O)[nH]c3c2C1` [Example 37, 9-(4-Chlorobenzoyl)-1,4,7,8,9,10-hexahydro-6-nitropyrido[3,4-f]quinoxaline-2,3-dione]: the figures for the concentration for half-maximal inhibition (IC50) in test [1] and in test [3] were 0.84 µM and 8.2 µM, respectively. Besides, 10 µM produced 74% inhibition in test [2].
Turning to `O=c1[nH]c2cc(Br)c3c(c2[nH]c1=O)CCN(Cc1cccc(C(F)(F)F)c1)C3` [Example 48, 6-Bromo-1,4,7,8,9,10-Hexahydro-8-[[3-(trifluoromethyl)methyl]pyrido[3,4-f]quinoxaline-2,3-dione hydrochloride], the IC50 amounted to 21 µM in test [1] and 67 µM in test [3].

As a reminder, the IC50 is the midpoint of a concentration-inhibition curve. Read a low IC50 as higher potency. Usually inhibition stands for how much of the control response was suppressed. The low end stands for a response near the control, the high end for a response far below the control.

For the origin of these results see US6197771A, “Glutamate (ampa/kainate) receptor antagonists: N-substituted fused azacycloalkylquinoxalinediones” (Warner-Lambert Company, priority 2000, dated 2001).
